Measurements taken from ChEMBL document CHEMBL1201862, “PubChem BioAssay data set” (2004).
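Where inhibition never reached the appropriate level, the endpoint shown equals the highest concentration tested. Otherwise, values were interpolated linearly from a five-concentration, 48-hour dose response in 96-well plates. At the GI50, growth is halved.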 Calls of active or inactive are those of the source. Rule as the data show it: active = GI50 up to about 1.1 µM and inactive = higher.

Experiments:
Test in all cases: NCI-60 cell line screen, 48 h
[1] = tested on: T47D
[2] = tested on: A498
[3] = tested on: Hs-578T
[4] = tested on: OVCAR-5
[5] = tested on: HCC 2998
[6] = tested on: MDA-N
[7] = tested on: SR
[8] = tested on: IGROV-1
[9] = tested on: 786-0
[10] = tested on: NCI-H522
[11] = tested on: BT-549
[12] = tested on: UACC-62
[13] = tested on: PC-3
[14] = tested on: U-251
[15] = tested on: COLO 205
[16] = tested on: ACHN
[17] = tested on: KM-20L2
[18] = tested on: DMS-273
[19] = tested on: M19-MEL
[20] = tested on: SNB-78

Row | SMILES | GI50 [1] | GI50 [2] | GI50 [3] | GI50 [4] | GI50 [5] | GI50 [6] | GI50 [7] | GI50 [8] | GI50 [9] | GI50 [10] | GI50 [11] | GI50 [12] | GI50 [13] | GI50 [14] | GI50 [15] | GI50 [16] | GI50 [17] | GI50 [18] | GI50 [19] | GI50 [20]
1 | OC(c1cc(C(F)(F)F)nc2c(Cl)cc(Cl)cc12)C1CCCCN1 (stereo not drawn) | 5.65 µM (inactive) | > 36.1 µM (inactive) | > 22.4 µM (inactive) | > 35 µM (inactive) | > 100 µM (inactive) | 77.1 µM (inactive) | 1.66 µM (inactive) | 6.4 µM (inactive) | 13.3 µM (inactive) | 7.53 µM (inactive) | 14.5 µM (inactive) | > 32.6 µM (inactive) | > 22.5 µM (inactive) | 25.4 µM (inactive) | 3.22 µM (inactive) | > 24.4 µM (inactive) |  |  |  | 
2 | C=C1c2c(cc3c(c2O)c(=O)c2ccccc2n3C)OC1(C)C |  | 30.9 µM (inactive) |  |  |  |  |  | 32.7 µM (inactive) |  | 2.95 µM (inactive) |  | > 100 µM (inactive) |  | 50.1 µM (inactive) | > 100 µM (inactive) | 46.9 µM (inactive) | 8.71 µM (inactive) | > 100 µM (inactive) | > 100 µM (inactive) | 37.2 µM (inactive)
3 | O=C(NC(Cc1ccc(I)cc1)C(=O)O)c1ccc(I)cc1 (stereo not drawn) |  | > 100 µM (inactive) |  | > 100 µM (inactive) | > 41.7 µM (inactive) |  |  | > 24.4 µM (inactive) |  | 38.8 µM (inactive) |  | 29.6 µM (inactive) |  | 62.1 µM (inactive) | > 100 µM (inactive) |  | > 94.8 µM (inactive) | 94.8 µM (inactive) | 72.3 µM (inactive) | > 89.3 µM (inactive)
4 | COc1ccc(C2C(=O)c3ccc(OC)cc3OC2c2cccnc2)cc1 (stereo not drawn) | > 100 µM (inactive) | > 100 µM (inactive) | 45.1 µM (inactive) | > 100 µM (inactive) | > 100 µM (inactive) | > 100 µM (inactive) | > 100 µM (inactive) | > 100 µM (inactive) | 83.2 µM (inactive) | > 100 µM (inactive) | 49.9 µM (inactive) | > 100 µM (inactive) | > 100 µM (inactive) | 70.3 µM (inactive) | > 100 µM (inactive) | > 100 µM (inactive) |  |  |  | 
5 | CC(=O)O[C@@H]1[C@H]2[C@@H](OC(=O)c3ccccc3)[C@@H](C)C[C@]2(O)[C@H](OC(C)=O)[C@@]2(C)[C@@H]3C[C@@](C)(OC(C)=O)C[C@@H](OC(C)=O)[C@@]3(OC(C)=O)C[C@@]12C | > 10 µM (inactive) | > 10 µM (inactive) | > 10 µM (inactive) | > 10 µM (inactive) | > 10 µM (inactive) | > 10 µM (inactive) | > 10 µM (inactive) | > 10 µM (inactive) | > 10 µM (inactive) | > 10 µM (inactive) | > 10 µM (inactive) | > 10 µM (inactive) | > 10 µM (inactive) | > 10 µM (inactive) | > 10 µM (inactive) | > 10 µM (inactive) |  |  |  | 
6 | COc1cc(C2C(C(=O)O)=C(COC(C)=O)Oc3cc4c(cc32)OCO4)cc(OC)c1OC (stereo not drawn) |  |  |  | > 100 µM (inactive) |  |  |  | > 100 µM (inactive) |  |  |  | > 100 µM (inactive) |  | > 100 µM (inactive) | > 100 µM (inactive) | > 100 µM (inactive) | > 100 µM (inactive) | > 100 µM (inactive) | > 100 µM (inactive) | > 100 µM (inactive)
7 | c1c2c(cc(-n3nnc4c3CCCCCC4)c1-n1nnc3c1CCCCCC3)CCCCCC2 |  | 10.4 µM (inactive) |  | 15.8 µM (inactive) | 12.8 µM (inactive) |  | 3.54 µM (inactive) | 18.3 µM (inactive) |  | 0.485 µM (active) |  | 12.4 µM (inactive) |  | 10.1 µM (inactive) |  | 5.71 µM (inactive) |  | 2.99 µM (inactive) | 8.77 µM (inactive) | 13.6 µM (inactive)
